System: S. aureus (MRSA) biofilms
Assay: in vitro sustained inhibition biofilm assay, bacterial
Assay type: cell-based, Staphylococcus aureus
Details: Staphylococcus aureus, MRSA, 24 h, read-out: Promote B Biofilm
Procedure: (§1) In vitro biofilm formation was tested using two assays, sustained inhibition and disruption. Both assays assess biofilm formed on polystyrene plates. The first, tests the effects of amino acid solution on a developing biofilm, while the latter tests the effects of the solution on a pre-formed mature biofilm, both compared to media without supplemented amino acids.
(§2) Other amino acids in the blood of animals could combat bacterial and fungal biofilm and therefore may be useful in treating these bacterial and fungal infections that would lie on the external surfaces of infected animals such as humans and could also be used to combat these pathogens on instruments and surfaces that need to be treated. Two types of biofilm assays were performed: a sustained inhibition assay and a disruption assay. The sustained inhibition assay assessed the compound's ability to prevent biofilm development throughout all stages of biofilm formation, while the disruption assay assessed the compound's ability to break up an existing mature biofilm.
(§3) For fungal biofilm assays, all solutions were prepared in RPMI 1640 medium. All bacterial biofilm solutions were prepared in Tryptic Soy Broth (TSB), supplemented with 1% glucose (henceforth referred to as TSB-G). All subsequent procedures were performed in a manner that maintained sterility. A solution of each amino acid to be tested was prepared in weight to volume concentrations ranging from 0.1-5.0%. Amino acids were also tested in combinations. Compound solutions were homogenized with gentle agitation in the dark (4° C., 24 hours) before use.
(§4) Bacterial strains were streaked on Blood Agar plates (5% sheep blood in Tryptic Soy Agar) and incubated at 37° C. for 24 hours. A single colony from each strain to be tested was inoculated in a TSB broth and grown for 12 hours, at 37° C. shaking at 225 rpm. For the bacterial biofilm inhibition assays, 1 μL of saturated overnight cell culture was added to either 80 μL of TSB-G, or TSB-G supplemented with the amino acid compound solution to be tested, in a 384-well plate. The cells were allowed to adhere to the plate for 60 minutes at 37° C. without shaking. The media was carefully aspirated and 80 μL of TSB-G, or TSB-G supplemented with the amino acid compound solution was added to the plate. The plate was further incubated for 24 hours at 37° C. without shaking. Media was carefully aspirated and the biofilm was measured by optical density at 600 nm. Eight or twelve replicates were performed for each tested condition and the reported values are normalized to the control (TSB-G media only). For the bacterial biofilm disruption assays, 80 μL of TSB-G was added to the plate, along with 1 μL of overnight cell culture. The cells were allowed to adhere to the plate for 60 minutes at 37° C. with no shaking. The media was carefully aspirated and 80 μL of TSB-G was added to the plate. The plate was further incubated for 24 hours at 37° C. with no shaking. Media was carefully aspirated from the mature biofilm and 80 μL of TSB-G, or TSB-G supplemented with the amino acid to be tested, was gently added to the plate. The plate was further incubated for 24 hours at 37° C. without shaking. Media was aspirated and the biofilm was measured by optical density at 600 nm. Twelve replicates were performed for each tested condition and the reported values are normalized to the control (TSB-G media only).
For inhibition assay, 1 μl of overnight cell culture was added to either 80 μl of TSB-G, or TSB-G supplemented with the amino acid to be tested, in a 384-well plate. The cells were allowed to adhere to the plate for 60 minutes at 37° C. with no shaking. The media was carefully aspirated and 80 μl of TSB-G, or TSB-G supplemented with amino acid was added to the plate. The plate was further incubated for 24 hours at 37° C. with no shaking. Media was carefully aspirated and the biofilm was measured by optical density at 600 nm. […]

Row | Structure (SMILES) | activation at 1 %
1 | N=C(N)NCCC[C@H](N)C(=O)O [Arginine, L-arginine] | 10 to 30%
2 | NC(=O)NCCC[C@H](N)C(=O)O [Citrulline, L-citrulline] | 10 to 30%
3 | NCCCC[C@H](N)C(=O)O [Lysine, L-lysine] | 10 to 30%

Same assay, conditions: Staphylococcus aureus, MRSA, 24 h; sustained inhibition; S. aureus; 1% amino acid; p<0.001; read-out: Promote B Biofilm

Row | Structure (SMILES) | activation at 1 %
4 | NC(=O)C[C@H](N)C(=O)O [Asparagine, L-asparagine] | 10 to 30%
5 | NCC(=O)O [Glycine, L-glycine] | 10 to 30%
6 | CC(C)C[C@H](N)C(=O)O [Leucine, L-leucine] | 10 to 30%
7 | CSCC[C@H](N)C(=O)O [Methionine, L-methionine] | 10 to 30%
8 | NCCC[C@H](N)C(=O)O [Ornithine, L-omithine] | 10 to 30%
9 | N[C@@H](Cc1ccccc1)C(=O)O [Phenylalanine, L-phenylalanine] | 10 to 30%
10 | N[C@@H](CO)C(=O)O [Serine, L-serine] | 10 to 30%
11 | NCCS(=O)(=O)O [Taurine, L-taurine] | 10 to 30%
12 | C[C@@H](O)[C@H](N)C(=O)O [Threonine, L-threonine] | 10 to 30%

Same assay, conditions: sustained inhibition; S. aureus; 1% amino acid; p<0.001

Row | Structure (SMILES) | Reduce B Biofilm
13 | NC(CCCC(=O)O)C(=O)O (stereo not drawn) [2 Aminoadipic Acid, 2-aminoadipic acid] | ● (a single dot [i.e. ●] signifies minor effect (from about 10 to about 30% change))
14 | NCCC(=O)O [Beta-Alanine, Beta-alanine] | ● (a single dot [i.e. ●] signifies minor effect (from about 10 to about 30% change))
15 | O=C(O)[C@@H]1C[C@@H](O)CN1 [Hydroxyproline, Trans-4-hydroxy-L-proline] | ● (a single dot [i.e. ●] signifies minor effect (from about 10 to about 30% change))
16 | NCCOP(=O)(O)O [Phosphoethanolamine, O-phosphoethanolamine] | ● (a single dot [i.e. ●] signifies minor effect (from about 10 to about 30% change))

System: S. aureus (MRSA) biofilms
Assay: in vitro biofilm disruption assay, bacterial
Assay type: cell-based
Details: Staphylococcus aureus, 24 h, disruption, S. aureus, 0.2% amino acid, p<0.001, read-out: Reduce B Biofilm
Procedure: as §1, §2, §3, §4
For disruption assay, 80 μl of TSB-G was added to the plate, along with 1 μl of overnight cell culture. The cells were allowed to adhere to the plate for 60 minutes at 37° C. with no shaking. The media was carefully aspirated and 80 μl of TSB-G was added to the plate. The plate was further incubated for 24 hours at 37° C. with no shaking. Media was carefully aspirated from the mature biofilm and 80 μl of TSB-G, or TSB-G supplemented with the amino acid to be tested, was added drop wise to the plate. The plate was further incubated for 24 hours at 37° C. with no shaking. […]

Row | Structure (SMILES) | inhibition at 0.2 %
17 | N[C@@H](CCSC[C@H](N)C(=O)O)C(=O)O [Cystathionine, L-cystathionine] | 10 to 30%

Same assay, conditions: Staphylococcus aureus, 24 h, disruption, S. aureus, 1% amino acid, p<0.001, read-out: Promote B Biofilm

Row | Structure (SMILES) | activation at 1 %
18 | C[C@H](N)C(=O)O [Alanine, L-alanine] | 10 to 30%
19 | NCC(=O)O [Glycine, L-glycine] | 10 to 30%
20 | CC[C@H](C)[C@H](N)C(=O)O [Isoleucine, L-isoleucine] | 10 to 30%
21 | CC(C)C[C@H](N)C(=O)O [Leucine, L-leucine] | 10 to 30%
22 | NCCC[C@H](N)C(=O)O [Ornithine, L-omithine] | 10 to 30%
23 | N[C@@H](Cc1ccccc1)C(=O)O [Phenylalanine, L-phenylalanine] | 10 to 30%
24 | N[C@@H](CO)C(=O)O [Serine, L-serine] | 10 to 30%
25 | NCCS(=O)(=O)O [Taurine, L-taurine] | 10 to 30%

Same assay, conditions: Staphylococcus aureus, 24 h, disruption, S. aureus, 1% amino acid, p<0.001, read-out: Reduce B Biofilm

Row | Structure (SMILES) | inhibition at 1 %
26 | NC(CCCC(=O)O)C(=O)O (stereo not drawn) [2 Aminoadipic Acid, 2-aminoadipic acid] | 10 to 30%
27 | NCCOP(=O)(O)O [Phosphoethanolamine, O-phosphoethanolamine] | 10 to 30%

Same assay, conditions: Staphylococcus aureus, 24 h, read-out: Promote B Biofilm

Row | Structure (SMILES) | activation at 1 %
28 | N=C(N)NCCC[C@H](N)C(=O)O [Arginine, L-arginine] | 10 to 30%
29 | NC(=O)NCCC[C@H](N)C(=O)O [Citrulline, L-citrulline] | 10 to 30%
30 | NCCCC[C@H](N)C(=O)O [Lysine, L-lysine] | 10 to 30%

Same assay, conditions: Staphylococcus aureus, 24 h, read-out: Reduce B Biofilm

Row | Structure (SMILES) | inhibition at 1 %
31 | O=C(O)[C@@H]1C[C@@H](O)CN1 [Hydroxyproline, Trans-4-hydroxy-L-proline] | 10 to 30%

System: fungal biofilms (C. albicans)
Assay: biofilm assays (sustained inhibition and/or disruption), fungal
Assay type: cell-based, Candida albicans
Details: Tables 4 and 5
Procedure: Other amino acids in the blood of animals could combat bacterial and fungal biofilm and therefore may be useful in treating these bacterial and fungal infections that would lie on the external surfaces of infected animals such as humans and could also be used to combat these pathogens on instruments and surfaces that need to be treated. Two types of biofilm assays were performed: a sustained inhibition assay and a disruption assay. The sustained inhibition assay assessed the compound's ability to prevent biofilm development throughout all stages of biofilm formation, while the disruption assay assessed the compound's ability to break up an existing mature biofilm. For fungal biofilm assays, all solutions were prepared in RPMI 1640 medium. All bacterial biofilm solutions were prepared in Tryptic Soy Broth (TSB), supplemented with 1% glucose (henceforth referred to as TSB-G). All subsequent procedures were performed in a manner that maintained sterility. […] Amino acids were also tested in combinations. Compound solutions were homogenized with gentle agitation in the dark (4° C., 24 hours) before use. Fungal strains were streaked on Yeast Peptone Dextrose (YPD) agar plates and incubated at 30° C. for 48 hours. A single colony from each strain to be tested was inoculated into YPD broth and grown for 12 hours, at 30° C., shaking at 225 rpm. For the fungal biofilm inhibition assay, 1 μl of saturated overnight cell culture was added to either 80 μL of RPMI-1640 or RPMI-1640 supplemented with the amino acid compound solution to be tested, in a 384-well plate. The cells were allowed to adhere to the plate for 90 minutes at 37° C. shaking at 350 rpm. Loosely bound cells were washed once with phosphate buffered saline (PBS) and 80 μl of RPMI-1640, or RPMI-1640 supplemented with the amino acid compound solution was added to the plate. The plate was further incubated for 24 hours at 37° C. shaking at 350 rpm. Media was carefully aspirated and the biofilm was measured by optical density at 600 nm. Twelve replicates were performed for each tested condition and the reported values are normalized to the control (RPMI-1640 media only). For the fungal biofilm disruption assays, 80 μL of RPMI-1640 was added to the plate, along with 1 μL of overnight cell culture. The cells were allowed to adhere to the plate for 90 minutes at 37° C. shaking at 350 rpm. Loosely bound cells were washed once with PBS and 80 μL of RPMI-1640 was added to the plate. The plate was further incubated for 24 hours at 37° C. shaking at 350 rpm. Media was carefully aspirated from the mature biofilm and 80 μL of RPMI-1640, or RPMI-1640 supplemented with the amino acid compound solution to be tested, was gently added to the plate. The plate was further incubated for 24 hours at 37° C. shaking at 350 rpm. Media was carefully aspirated and the biofilm was measured by optical density at 600 nm. Twelve replicates were performed for each tested condition and the reported values are normalized to the control (RPMI-1640 media only).

Row | Structure (SMILES) | effect on C. albicans biofilms in inhibition and disruption assays
32 | N[C@@H](CCS)C(=O)O [Homocysteine, L-homocysteine] | both inhibited and disrupted

Same assay, conditions: administered individually; in at least one of the two biofilm assays

Row | Structure (SMILES) | anti-biofilm properties against fungal biofilms
33 | N[C@@H](CCS)C(=O)O [Homocysteine, L-homocysteine] | reduction by less than two-fold

System: bacterial biofilms (MRSA)
Assay: biofilm assays (sustained inhibition and/or disruption), bacterial
Assay type: cell-based, Staphylococcus aureus
Details: Tables 4 and 5
Procedure: as §2, §3, §4

Row | Structure (SMILES) | effect on MRSA biofilms in inhibition and disruption assays
34 | NC(CCCC(=O)O)C(=O)O (stereo not drawn) [2 Aminoadipic Acid, 2-aminoadipic acid] | both inhibited and disrupted
35 | O=C(O)[C@@H]1C[C@@H](O)CN1 [Hydroxyproline, Trans-4-hydroxy-L-proline] | both inhibited and disrupted
36 | NCCOP(=O)(O)O [Phosphoethanolamine, O-phosphoethanolamine] | both inhibited and disrupted

Same assay, conditions: administered individually at about 0.1 to about 5.0% weight to volume; in at least one of the two biofilm assays

Row | Structure (SMILES) | anti-biofilm properties against bacterial biofilms
37 | NC(CCCC(=O)O)C(=O)O (stereo not drawn) [2 Aminoadipic Acid, 2-aminoadipic acid] | reduction by less than twofold
38 | NCCC(=O)O [Beta-Alanine, Beta-alanine] | reduction by less than twofold
39 | O=C(O)[C@@H]1C[C@@H](O)CN1 [Hydroxyproline, Trans-4-hydroxy-L-proline] | reduction by less than twofold
40 | NCCOP(=O)(O)O [Phosphoethanolamine, O-phosphoethanolamine] | reduction by less than twofold

Same assay, conditions: in at least one of the two biofilm assays

Row | Structure (SMILES) | effect on bacterial biofilm growth
41 | C[C@H](N)C(=O)O [Alanine, L-alanine] | support (improve) bacterial biofilm growth
42 | N=C(N)NCCC[C@H](N)C(=O)O [Arginine, L-arginine] | support (improve) bacterial biofilm growth
43 | NC(=O)C[C@H](N)C(=O)O [Asparagine, L-asparagine] | support (improve) bacterial biofilm growth
44 | NC(=O)NCCC[C@H](N)C(=O)O [Citrulline, L-citrulline] | support (improve) bacterial biofilm growth
45 | NCC(=O)O [Glycine, L-glycine] | support (improve) bacterial biofilm growth
46 | CC[C@H](C)[C@H](N)C(=O)O [Isoleucine, L-isoleucine] | support (improve) bacterial biofilm growth
47 | CC(C)C[C@H](N)C(=O)O [Leucine, L-leucine] | support (improve) bacterial biofilm growth
48 | NCCCC[C@H](N)C(=O)O [Lysine, L-lysine] | support (improve) bacterial biofilm growth
49 | CSCC[C@H](N)C(=O)O [Methionine, L-methionine] | support (improve) bacterial biofilm growth
50 | NCCC[C@H](N)C(=O)O [Ornithine, L-omithine] | support (improve) bacterial biofilm growth
51 | N[C@@H](Cc1ccccc1)C(=O)O [Phenylalanine, L-phenylalanine] | support (improve) bacterial biofilm growth
52 | N[C@@H](CO)C(=O)O [Serine, L-serine] | support (improve) bacterial biofilm growth
53 | NCCS(=O)(=O)O [Taurine, L-taurine] | support (improve) bacterial biofilm growth
54 | C[C@@H](O)[C@H](N)C(=O)O [Threonine, L-threonine] | support (improve) bacterial biofilm growth
